# Measurements reported in US10870647B2, “Imidazopyridine derivative, method for preparing same, and pharmaceutical composition containing same as active ingredient for preventing or treating cancer” (DAEGU-GYEONGBUK MEDICAL INNOVATION FOUNDATION, priority 2016, dated 2020).
# Assays:
# Format in all cases: cell-based
# M-NFS-60 = assay: Cancer cell proliferation inhibition, CCK-8, 72 hours
# Procedure, shortened: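 Cells were grown in RPMI with 10% FBS, 0.05 mM 2-mercaptoethanol and human M-CSF, and seeded at 20000 cells/well. Compounds were added from a 3-fold DMSO dilution series topping at 1968 nM (dilution-plate concentration; 11 points including DMSO control). After 72 h at 37 °C, CCK-8 was added for 2 h and OD450 read.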
# Huh7 = assay: Cancer cell proliferation inhibition, MTS assay, 72 hours; settings: Homo sapiens, Huh-7
# Procedure, shortened: (§1)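 Read-out was OD450 after a 2 h MTS/PMS incubation at 37° C, following 72 h compound treatment. Cells had been plated at 3,000 cells/well and cultured 24 h beforehand; compound was serially diluted from a top of 50 μM with 0.05% DMSO as vehicle. IC50 derived from three data sets.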
# RET (LC2/ad-CDC6) = assay: as above; settings: 72 h
# Procedure, shortened: as §1
# SK-MEL-28 = assay: as above; settings: Homo sapiens
# Procedure, shortened: as §1
# A375 = assay: Cancer cell proliferation inhibition, CCK-8, 72 hours; settings: Homo sapiens, A-375, 72 h
# Procedure, shortened: (§2)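 A375 cells (2×10^3/well) attached overnight, then received 9 three-fold dilutions (0.0015-10 μM). K562 and Ba/F3-T315I (1×10^4/well) were given 9-point series (3-fold and 5-fold respectively), final 0-10 μM. After 72 h at 37°C, CCK-8 was added for 2 h; blank-subtracted OD450 gave IC50.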
# K562 = assay: as above; settings: Homo sapiens, K562, 72 h
# Procedure, shortened: as §2
# T315I (Ba/F3) = molecular target: T1, T315I (Ba/F3) (Homo sapiens, UniProt P00519, T315I, cells depend on it); assay: as above; settings: read-out: T315I (Ba/F3) IC50
# T1 construct: fused on or other part: P11274 (Breakpoint cluster region protein)
# Procedure, shortened: as §2
# FYN (FN) = assay: Cancer cell proliferation inhibition, MTS assay, 72 hours
# Procedure, shortened: as §1
# FYN (MCP-1) = assay: as above
# Procedure, shortened: as §1
# Ret^V804M (Ba/F3) = molecular target: T2, Ret^V804M (Ba/F3) (Homo sapiens, UniProt P07949, V804M, cells depend on it, form not given); assay: as above; settings: read-out: Ret^V804M (Ba/F3) IC50
# T2 construct: candidates are KIF5B, CCDC6, TEL (ETV6), or none (full-length RET)
# T2 sequence (P07949 whole entry V804M, form open): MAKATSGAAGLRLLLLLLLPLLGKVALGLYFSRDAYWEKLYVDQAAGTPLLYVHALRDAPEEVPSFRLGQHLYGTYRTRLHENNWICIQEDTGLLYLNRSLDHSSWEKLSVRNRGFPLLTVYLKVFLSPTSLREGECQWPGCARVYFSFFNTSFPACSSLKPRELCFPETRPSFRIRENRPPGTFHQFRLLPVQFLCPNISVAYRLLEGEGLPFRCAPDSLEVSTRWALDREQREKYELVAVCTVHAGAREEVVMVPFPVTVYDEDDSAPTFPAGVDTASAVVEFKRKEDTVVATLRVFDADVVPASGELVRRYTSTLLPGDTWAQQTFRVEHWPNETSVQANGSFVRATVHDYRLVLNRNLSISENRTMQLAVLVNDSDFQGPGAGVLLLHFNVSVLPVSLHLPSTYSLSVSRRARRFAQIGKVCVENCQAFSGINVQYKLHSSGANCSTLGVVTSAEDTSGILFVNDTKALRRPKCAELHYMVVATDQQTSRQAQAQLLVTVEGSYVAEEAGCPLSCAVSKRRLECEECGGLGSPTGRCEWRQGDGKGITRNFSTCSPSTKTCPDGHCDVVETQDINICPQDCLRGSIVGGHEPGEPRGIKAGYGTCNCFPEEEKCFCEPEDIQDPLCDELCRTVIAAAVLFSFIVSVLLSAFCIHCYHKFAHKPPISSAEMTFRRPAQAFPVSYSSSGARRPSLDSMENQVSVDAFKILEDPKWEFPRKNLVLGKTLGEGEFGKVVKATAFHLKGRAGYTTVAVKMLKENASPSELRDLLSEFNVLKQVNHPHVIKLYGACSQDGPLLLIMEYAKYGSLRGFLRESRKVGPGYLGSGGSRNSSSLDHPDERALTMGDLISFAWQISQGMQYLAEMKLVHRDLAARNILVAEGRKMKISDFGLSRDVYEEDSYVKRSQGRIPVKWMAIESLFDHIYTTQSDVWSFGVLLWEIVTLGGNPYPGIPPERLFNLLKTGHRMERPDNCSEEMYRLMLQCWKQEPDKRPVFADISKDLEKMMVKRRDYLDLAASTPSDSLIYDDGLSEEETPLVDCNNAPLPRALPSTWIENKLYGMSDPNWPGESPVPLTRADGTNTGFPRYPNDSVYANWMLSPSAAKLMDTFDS
# Procedure, shortened: as §1
# Ret^wt (Ba/F3) = molecular target: T3, Ret^wt (Ba/F3) (Homo sapiens, UniProt P07949); assay: as above; settings: read-out: Ret^wt (Ba/F3) IC50
# T3 construct: candidates are KIF5B, CCDC6, TEL (ETV6), or none (full-length RET)
# T3 sequence (P07949 whole entry, change not shown): as the sequence (P07949 whole entry V804M, form open) above, with M804V counted along it
# Procedure, shortened: as §1
# Ret^Parental (Ba/F3) = assay: as above; settings: Mus musculus, BaF3
# Procedure, shortened: as §1
IC50 (FYN (FN)) [nM],SMILES,IC50 (M-NFS-60) [nM],IC50 (Huh7) [nM],IC50 (RET (LC2/ad-CDC6)) [nM],IC50 (SK-MEL-28) [nM],IC50 (A375) [nM],IC50 (K562) [nM],GI50 (T315I (Ba/F3)) [nM],IC50 (FYN (MCP-1)) [nM],GI50 (Ret^V804M (Ba/F3)) [nM],GI50 (Ret^wt (Ba/F3)) [nM],IC50 (Ret^Parental (Ba/F3)) [nM]
–,Cc1ccc(NC(=O)C2(C(=O)Nc3ccc(F)cc3)CC2)cc1C#Cc1cnc2c(Nc3cnn(C(C)C)c3)cccn12 [Example 78],672,5120,< 10000,4550,4600,1200,3240,–,–,–,–
< 100,"Cc1ccc(C(=O)Nc2cccc(C(F)(F)F)c2)cc1C#Cc1cnc2c(Nc3cnn(C4CCNCC4)c3)cccn12 [Example 11, 4-methyl-3-((8-((1-(piperidin-4-yl)-1H-pyrazol-4-yl)amino)imidazo[1,2-a]pyridin-3-yl)ethynyl)-N-(3-(trifluoromethyl)phenyl)benzamide]",30.8,1220,–,1460,1250,< 1,6.34,< 100,98,5,2400
–,"Cc1ccc(C(=O)Nc2ccc(CN3CCN(C)CC3)c(C(F)(F)F)c2)cc1C#Cc1cnc2c(Nc3cnn(C)c3)cccn12 [Example 1, 4-methyl-3-((8-((1-methyl-1H-pyrazol-4-yl)amino)imidazo[1,2-a]pyridin-3-yl)ethynyl)-N-(4-((4-methylpiperazin-1-yl)methyl)-3-(trifluoromethyl)phenyl)benzamide]",64.6,65,< 10,334,26,< 1,26,730,5,3,1210
< 1000,"CCN1CCN(Cc2ccc(NC(=O)c3ccc(C)c(C#Cc4cnc5c(Nc6cnn(C)c6)cccn45)c3)cc2C(F)(F)F)CC1 [Example 8, N-(4-((4-ethylpiperazin-1-yl)methyl)-3-(trifluoromethyl)phenyl)-4-methyl-3-((8-((1-methyl-1H-pyrazol-4-yl)amino)imidazo[1,2-a]pyridin-3-yl)ethynyl)benzamide]",34.1,255,–,586,52,< 1,32,< 1000,10,2,1320

SMILES,IC50 (FYN (FN)) [nM],IC50 (M-NFS-60) [nM],IC50 (Huh7) [nM],IC50 (RET (LC2/ad-CDC6)) [nM],IC50 (SK-MEL-28) [nM],IC50 (A375) [nM],IC50 (K562) [nM],GI50 (T315I (Ba/F3)) [nM],IC50 (FYN (MCP-1)) [nM],GI50 (Ret^V804M (Ba/F3)) [nM],GI50 (Ret^wt (Ba/F3)) [nM],IC50 (Ret^Parental (Ba/F3)) [nM]
"Cc1cn(-c2cc(NC(=O)c3ccc(C)c(C#Cc4cnc5c(Nc6cnn(C)c6)cccn45)c3)cc(C(F)(F)F)c2)cn1 [Example 12, 4-methyl-N-(3-(4-methyl-1H-imidazol-1-yl)-5-(trifluoromethyl)phenyl)-3-((8-((1-methyl-1H-pyrazol-4-yl)amino)imidazo[1,2-a]pyridin-3-yl)ethynyl)benzamide]",< 100,247,147,< 100,> 10000,942,< 1,6.72,< 100,54,17,–
